Values quoted from earlier work in the PKSmart pharmacokinetics tables (Seal et al. 2025).
Where a SMILES comes first, the peptide text is derived from it. [ ]: non-standard residue; d: D form. pGlu = O=C1CC[CH](C(=O)O)N1; Thz = O=C(O)[CH]1CSCN1

Experiment: Lombardo, Berellini, Obach 2018, Drug Metab Dispos 46:1466, doi 10.1124/dmd.118.082966
Conditions: human; for MRT / Vd / clearance / half-life: in vivo, iv; for fraction unbound: plasma

| SMILES | MRT [h] | Vd [L/kg] | clearance [mL/min/kg] | half-life [h] | fraction unbound |
| --- | --- | --- | --- | --- | --- |
| Cc1ccc(S(=O)(=O)NC(=O)NN2C[C@H]3CCC[C@@H]3C2)cc1 | 17.5 | 0.43 | 0.41 | 16.4 | 0.03 |
| CCOc1ccc2ccccc2c1C(=O)NC1C(=O)N2C(C(=O)O)C(C)(C)S[C@H]12 (stereo not given in full) | 1.1 | 0.22 | 3.3 | 0.7 | 0.13 |
| NN=c1cc2c(n[nH]1)CCN(C(=O)c1ccccc1)C2 | 2.7 | 2.2 | 13 | 5.6 | – |
| CC[C@H]1C2C[C@H]3[C@@H]4N(C)c5ccccc5C45C[C@@H](C2[C@H]5O)N3[C@@H]1O (stereo not given in full) | 6.8 | 4 | 9.8 | 7.3 | 0.24 |
| CCCC(C)(COC(N)=O)COC(N)=O | 19 | 0.7 | 0.6 | 14 | 1 |
| CC(O)Cn1cnc2c1c(=O)n(C)c(=O)n2C (stereo not given) | 8.39 | 0.59 | 1.17 | 7.8 | – |
| CCC[C@@H]1CC(C(=O)N[C@@H]([C@H]2O[C@H](SC)[C@H](O)[C@@H](O)[C@H]2O)[C@@H](C)O)N(C)C1 (stereo not given in full) | 7.5 | 1 | 2.1 | 5.6 | – |
| Cn1cc(NC(=O)Nc2cc(C(=O)Nc3cc(C(=O)Nc4ccc5cc(S(=O)(=O)O)cc(S(=O)(=O)O)c5c4)n(C)c3)n(C)c2)cc1C(=O)Nc1cc(C(=O)Nc2ccc3cc(S(=O)(=O)O)cc(S(=O)(=O)O)c3c2)n(C)c1 | 960 | 0.27 | 0.0047 | 730 | – |
| O=C(Cc1cccs1)NC1C(=O)N2C(C(=O)[O-])=C(C[n+]3ccccc3)CS[C@H]12 (stereo not given in full) | 2.3 | 0.46 | 3.3 | 1.5 | 0.8 |
| Cc1c(Cl)cccc1Nc1ccccc1C(=O)O | 1.13 | 0.16 | 2.37 | 2.15 | 0.003 |
| CN1CC(C(=O)N[C@]2(C)O[C@@]3(O)[C@@H]4CCCN4C(=O)C(Cc4ccccc4)N3C2=O)C=C2c3cccc4[nH]cc(c34)C[C@H]21 (stereo not given in full) | 4 | 3.6 | 15 | 2.1 | 0.02 |
| CCCN(CCc1cccs1)[C@H]1CCc2c(O)cccc2C1 | 2.6 | 5.7 | 37 | 4 | 0.08 |
| Nc1cc(OCC2CC2)c(C(=O)NC2CN3CCC2CC3)cc1Cl (stereo not given) | 12.3 | 3.9 | 5.2 | 13.5 | – |
| CO[C@@H]1[C@@H](O[C@@H]2O[C@H](C)[C@@H](O[C@H]3C[C@@](C)(O)[C@@H](O)[C@H](C)O3)[C@H](N(C)C)[C@H]2O)[C@@H](CC=O)C[C@@H](C)[C@@H](O[C@H]2CC[C@@H](N(C)C)[C@H](C)O2)C=CC=CC[C@@H](C)OC(=O)C[C@H]1O | 7 | – | 12.8 | 5.2 | 0.26 |
| CC(C)(C)C1(O)CC2OC(=O)CC23C(=O)OC2OC(=O)C(O)C231 (stereo not given) | 4 | 2.5 | 10 | 3.2 | – |
| C[C@H](O)C1C(=O)N2C(C(=O)O)=C(S[C@H]3CN[C@H](CNS(N)(=O)=O)C3)[C@@H](C)C12 (stereo not given in full) | – | – | – | 1.2 | 0.92 |
| COP(=O)(c1cc(C)cc(/C=C/C#N)c1)c1c(C(N)=O)[nH]c2ccc(Cl)cc12 (stereo not given) | 5.5 | 0.56 | 1.71 | 4.4 | – |
| NC(=O)N1c2ccccc2CC(O)c2ccccc21 (stereo not given) | 13.6 | 0.72 | 0.88 | 9.8 | 0.7 |
| CCOC(=O)C1(c2ccccc2)CCN(CCC(O)c2ccccc2)CC1 (stereo not given) | 4.32 | 5.7 | 22 | 3.22 | – |
| O=P1(NCCCl)OCCCN1CCCl (stereo not given) | 9.4 | 0.62 | 1.1 | 6.6 | – |
| COc1cc([S+](C)O)ccc1-c1nc2cnccc2[n-]1 (stereo not given) | 1.3 | 1.67 | 20.7 | 1.2 | 0.48 |
| CC(CCc1ccc2c(c1)OCO2)NCC(O)c1ccc(O)c(C(N)=O)c1 (stereo not given) | 8.2 | 7.9 | 16 | 11 | – |
| CC[C@H]1OC(=O)C[C@@H](O)[C@H](C)[C@@H](O[C@@H]2O[C@H](C)C[C@H](N(C)C)[C@@H]2O)[C@@H](CC=O)CC(C)C(=O)C=C[C@]2(C)O[C@H]2[C@@H]1C (stereo not given in full) | 3.54 | 2.83 | 13.3 | 3.34 | – |
| Cc1ccc2c(-c3ccccc3)nc(=O)n(C(C)C)c2c1 | 0.92 | 0.52 | 9.45 | 1.27 | 0.02 |

| SMILES | MRT [h] | Vd [L/kg] | clearance [mL/min/kg] | half-life [h] | fraction unbound |
| --- | --- | --- | --- | --- | --- |
| CN(C)C(=N)NC(=N)N | 1.4 | 0.64 | 7.4 | 1.7 | – |
| CCCCCNC(=N)NN=Cc1c[nH]c2ccc(OC)cc12 | 4.9 | 5.3 | 18 | 11 | – |
| C=C[C@@H]1CNCC[C@@H]1CCCc1ccnc2ccc(OC)cc12 | 15.6 | 24.4 | 26 | 12.1 | – |
| CCCc1cc(=O)[nH]c(=S)[nH]1 | 1.8 | 0.34 | 3.1 | 1.3 | 0.18 |
| CCCCCCCC/C=C/CCCCCCCC(=O)OC[C@H]1O[C@@H](n2ccc(N)nc2=O)[C@@H](O)[C@@H]1O | 0.51 | 0.14 | 4.53 | 0.36 | – |
| O=C1NC(=O)C(c2cn3ccccc3n2)=C1C1=CN2CCN(C(=O)N3CCCCC3)C[C@@H]3C=C(F)C=C1[C@H]32 | 1.9 | 1.2 | 10.3 | 2.7 | 0.02 |
| CC(=O)O[C@H]1C[C@@H]2CC[C@@H]3[C@H](CC[C@@]4(C)[C@H]3C[C@H]([N+]3(C)CCCCC3)[C@@H]4OC(C)=O)[C@@]2(C)C[C@@H]1[N+]1(C)CCCCC1 | 2.2 | 0.2 | – | 1.9 | 0.09 |
| O=S(=O)(Nc1ccccc1)c1cccc(/C=C/C(O)=NO)c1 | 0.6 | 0.8 | 23.6 | 1.6 | 0.06 |
| CC1(C)S[C@@H]2C(NC(=O)C(C(=O)O)c3ccccc3)C(=O)N2C1C(=O)O (stereo not given in full) | 1.5 | 0.17 | 1.9 | 1.1 | – |
| O=C1CN=C(c2ccccc2)c2cc([N+](=O)[O-])ccc2N1 | 33 | 1.7 | 0.86 | 26 | – |
| CN(C)C(=O)CCS[C@H](SCCC(=O)O)c1cccc(/C=C/c2ccc3ccc(Cl)cc3n2)c1 | 2.7 | 0.11 | 0.68 | 2.3 | 0.0004 |
| CCCCCCCN(CC)CCCC(O)c1ccc(NS(C)(=O)=O)cc1 (stereo not given) | 7.7 | 12 | 26 | 7 | – |
| O=C1CCC(C(=O)N2CSCC2C(=O)O)N1 (stereo not given) ([pGlu]-[Thz]-OH; configuration not given here) | 4.5 | 0.31 | 1.16 | 3.8 | 0.96 |
| CC1(C)[C@@H](O[C@H]2OC(C(=O)O)[C@@H](O)[C@H](O)[C@H]2O[C@@H]2OC(C(=O)O)[C@@H](O)[C@H](O)[C@H]2O)CC[C@]2(C)C3C(=O)C=C4C5C[C@@](C)(C(=O)O)CC[C@]5(C)CC[C@]4(C)[C@@]3(C)CC[C@@H]12 (stereo not given in full) | 7.83 | 0.06 | 0.13 | 8.83 | – |
| CNS(=O)(=O)Cc1ccc2[nH]cc(CCCN3CCN(c4ncncc4OC)CC3)c2c1 | 2.25 | 0.87 | 6.44 | 5.26 | – |
| CC(NCc1ccc(OCc2cccc(F)c2)cc1)C(N)=O (stereo not given) | 31.2 | 2.19 | 1.17 | 21.7 | – |
| CN(C)C/C=C(\c1ccc(Br)cc1)c1cccnc1 | 8.22 | 6.8 | 13.8 | 6.26 | 0.086 |
| COc1cccc2c1C(=O)c1c(O)c3c(c(O)c1C2=O)C[C@@](O)(C(=O)CO)C[C@@H]3O[C@H]1C[C@H](N)[C@H](OCc2ccccc2)[C@H](C)O1 | 43.2 | 48 | 18.5 | 34.6 | – |
| C[C@@H](O)C1C(=O)N2C(C(=O)O)=C(SCCNC=N)C[C@H]12 (stereo not given in full) | 1.3 | – | 3 | 0.95 | – |
| NCCCC(O)(P(=O)(O)O)P(=O)(O)O | 2.1 | – | – | – | – |
| Cc1ccc(-n2ccnc2)cc1C(O)c1c(C)cc(C(=O)O)cc1C (stereo not given) | 2.17 | 0.37 | 2.91 | 2.37 | – |
| CN(C)CC(Oc1ccccc1)Oc1ccccc1 | 3.4 | 2.8 | 13.7 | 4.4 | – |
| CC(=O)O[C@@]12CO[C@@H]1C[C@H](O)[C@@]1(C)C(=O)C(=O)C3C(C)[C@@H](OC(=O)C(O)C(NC(=O)OC(C)(C)C)c4ccccc4)C[C@@](O)([C@@H](OC(=O)c4ccccc4)[C@H]21)C3(C)C (stereo not given in full) | 2.5 | 2.1 | 14 | 11 | 0.04 |
| COc1ccc2cc1Oc1cc3c(cc1OC)CC[N+](C)(C)[C@H]3Cc1ccc(cc1)Oc1c(OC)c(OC)cc3c1[C@@H](C2)[N+](C)(C)CC3 | 5.6 | 0.4 | 1.2 | 5.1 | 0.65 |
